Patent US4325970A, “15-Acetyl-prostaglandins” (Hoffmann-La Roche Inc., priority 1980, dated 1982)
Read-outs that look alike come from different tables or passages of the source.

Legend:
gastric secretion = test: gastric secretory depressant test in the unanesthetized rat with acute gastric fistula (acid concentration, acid output, pH); type: in vivo; conditions: for % Inhibition, acid concentration (S.E.M.) / % Inhibition, acid output (S.E.M.): 10 μg/kg b.w. I.G.
Description: were tested as gastric secretory depressants in the unanesthesized rat with acute gastric fistula by the following procedure:
During this baseline period, the pH of the secretory flow was about 1.5 for each animal. Individual samples were collected at 10-minute intervals during this baseline period to monitor the pH. The compounds dissolved in polyethylene glycol-400 were administered intragastrically (I.G.) after this baseline period and samples were continuously collected for up to 180 minutes. The samples of gastric contents were subsequently assayed for volume, total acid concentration (μEq/ml) and total acid output for 10 minutes (μEq/10 minutes).
In addition to intragastric (I.G.) dosages, the activity of these compounds was tested for intraduodenal (I.D.) and intravenous administration (I.V.) to unanesthetized rats with acute gastric fistula as described above. For I.D. administration, the compounds were dissolved in polyethylene glycol-400. On the other hand, a trimethylolnitro-methane/ethanol solution was used for I.V. dosing. […] With this dose and route of administration of Compound A, a pronounced effect on pH was seen, an average increase of 3.1 pH units over 3 hours post administration. With the I.G. dose of Compound A of 5 μg/Kg b.w., an average increase of 1.6 pH units occurred. […] The antisecretory effect of Compound A seen after I.V. administration (10 μg/Kg b.w.) was low, amounting to about 1/4 to 1/5 that seen following I.G. dosage of Compound A. With the I.V. route of administration at this dose of Compound A (10 μg/Kg b.w.) effect on pH was minimal, 1/10 to 1/20 that seen after I.G. administration of an identical dose of Compound A.

acid secretion = acid secretion in three conscious dog models (Heidenhain pouches, Pavlov pouches or gastric fistulae); type: in vivo
Source text: These models consisted of concious dogs prepared with Heidenhain pouches, Pavlov pouches or gastric fistulae.

[1] = test system: gastric secretion stimulated by histamine; test: Heidenhain pouch dog test, histamine-stimulated gastric secretion; type: in vivo, dog (mongrel)
Description: Compound A was next tested at a dose level which would cause a definite and reproducible pharmacological effect.
The Heindenhain pouch test involved collecting gastric juice from the denervated (Heidenhain) gastric pouches of mongrel dogs. This collection was accomplished by gravity drainage, using a specially manufactured titanium cannula. Gastric secretion was stimulated by intravenous infusion of a saline solution of histamine hydrochloride, 20 μg/kg/hr, injected at a rate of 1 ml/min. This submaximal stimulation elicited acid secretion approximately 30% of maximal, without the tachycardia commonly observed with higher doses of histamine. Samples of gastric juice were collected at 15-min intervals. Compound A was administered orally via a 1/4 oz. hard gelatin capsule. The animals were dosed 90 min after the start of histamine infusion and the test continued for 9 hours post-drug administration. The dogs were concious and stood quietly in Pavlov slings during the experiments. Sample volume was measured, and pH, acid concentration (mEq/L), acid output (mEq/15-min periods), as well as pepsin concentration and output were determined. Vital signs were monitored throughout the test and kennel observations continued for 24 hr.
The indexes chosen to assess drug efficacy were acid concentration and acid output. These parameters were expressed as a percentage of the average of the three 15-min values prior to dosage. […] […] Values of pH increased from a control average of 1.0 to a maximum of 2.0 six hours post drug. Analysis of control data for this group of Heindenhain-pouch dogs indicated no significant decrease in gastric juice volumes from control levels during these extended studies. In these control animals, pH values averaged 0.9 throughout the entire experiment. Therefore, no significant decreases in acid concentration or output would be expected in the control results.

[2] = test system: gastric microbleeding induced by aspirin; type: in vivo, rat; conditions: for blood lost after Compound A in combination with aspirin: intragastric, one hour
Source text: To study the effects of Compound A on gastric microbleeding induced by aspirin, a technique was developed based on that used by Menasse-Gdynia and Krupp, Toxicol, Appl. Pharmacol. 29, 389-396. The technique involves the microsurgical preparation of rats so as to isolate the stomach in an accessible, perfused system and the utilization of chromium-51-labelled red blood cells (^51 Cr-RBC) as a convenient handle for the assessment of bleeding from drug-induced gastric microlesions.
Rats were microsurgically implanted with a cannula in the vena cava (for the injection of ^51 Cr-RBC), a cannula in the forestomach (for constant infusion of tap water) and a cannula in the duodenum at the pyloric sphincter (for collection ot total gastric effluent). After a 30 min wash with tap water infused at 5.5 m/hr, each animal was administered either aspirin (100 mg/kg) or aspirin in combination with Compound A. Ease dose was administered intragastrically in 1 ml 40% polyethylene glycol (having molecular weight of 400) vehicle and allowed to remain in the stomach for 15 min. Simultaneously 0.9 ml ^51 Cr-RBC (3×10^6) was administered through the vena cava. Gastric effluent was collected every 5 min for a total of […]. Radioactivity was determined in a gamma counter. The results are expressed as microliters of whole blood lost during the 60 min experiments, based on the following formula: [formula]

[3] = 20 minutes after administration
[4] = 30 minutes after administration
[5] = 40 minutes after administration
[6] = 50 minutes after administration
[7] = 60 minutes after administration
[8] = 70 minutes after administration
[9] = 80 minutes after administration
[10] = 90 minutes after administration
[11] = 100 minutes after administration
[12] = 110 minutes after administration
[13] = 120 minutes after administration
[14] = 130 minutes after administration
[15] = 140 minutes after administration
[16] = 150 minutes after administration
[17] = 160 minutes after administration
[18] = 170 minutes after administration
[19] = 180 minutes after administration
[20] = Compound A 10 μg/kg + aspirin 100 mg/kg

Compound: CCCCC(C)(C)[C@@H](/C=C/C1[C@H](C)CC(=O)[C@@H]1C/C=C\CCCC(=O)O)OC(C)=O (stereo in doubt) [Compound A, (8R,11R,12S,15R,5Z,13E)-15-acetyloxy-11,16,16-trimethyl-9-oxoprosta-5,13-dien-1-oic acid]
- duration of action (gastric secretion; 5 μg/Kg I.G.): 110 min
- response in pH relative to that seen with the 10 μg/Kg b.w. dose of Compound A (gastric secretion; 5 μg/Kg I.G. vs 10 μg/Kg I.G.): about 50%
- average increase of pH (gastric secretion; 5 μg/Kg b.w. I.G.): 1.6 pH units
- effect on pH compared with 10 μg/Kg I.G. of Compound B (gastric secretion; 5 μg/Kg b.w. I.G.): essentially equivalent to that of the 10 μg/Kg I.G. of Compound B
- duration of action (gastric secretion; 10 μg/Kg I.G.): 180 min
- effect on acid concentration and output compared with I.G. dosage (gastric secretion; 10 μg/Kg b.w. I.D.): no different to the I.G. dosage of Compound A
- effect on pH compared with I.G. route (gastric secretion; 10 μg/Kg b.w. I.D.): much lower than by the I.G. route
- average increase of pH (gastric secretion; 10 μg/Kg b.w. I.G. (printed 10 g/Kg), over 3 hours post administration): 3.1 pH units
- antisecretory effect (gastric secretion; 10 μg/Kg b.w. I.V.): low
- effect on pH (gastric secretion; 10 μg/Kg b.w. I.V.): minimal
- % Inhibition, acid concentration (S.E.M.) (gastric secretion; [3]): 34 (16) %
- % Inhibition, acid output (S.E.M.) (gastric secretion; [3]): 39 (14) %
- % Inhibition, acid concentration (S.E.M.) (gastric secretion; [4]): 91 (9) %
- % Inhibition, acid output (S.E.M.) (gastric secretion; [4]): 91 (9) %
- % Inhibition, acid concentration (S.E.M.) (gastric secretion; [5]): 70 (14) %
- % Inhibition, acid output (S.E.M.) (gastric secretion; [5]): 69 (17) %
- % Inhibition, acid concentration (S.E.M.) (gastric secretion; [6]): 50 (17) %
- % Inhibition, acid output (S.E.M.) (gastric secretion; [6]): 43 (20) %
- % Inhibition, acid concentration (S.E.M.) (gastric secretion; [7]): 67 (21) %
- % Inhibition, acid output (S.E.M.) (gastric secretion; [7]): 73 (17) %
- % Inhibition, acid concentration (S.E.M.) (gastric secretion; [8]): 67 (21) %
- % Inhibition, acid output (S.E.M.) (gastric secretion; [8]): 74 (17) %
- % Inhibition, acid concentration (S.E.M.) (gastric secretion; [9]): 67 (21) %
- % Inhibition, acid output (S.E.M.) (gastric secretion; [9]): 79 (16) %
- % Inhibition, acid concentration (S.E.M.) (gastric secretion; [10]): 80 (20) %
- % Inhibition, acid output (S.E.M.) (gastric secretion; [10]): 80 (20) %
- % Inhibition, acid concentration (S.E.M.) (gastric secretion; [11]): 67 (20) %
- % Inhibition, acid output (S.E.M.) (gastric secretion; [11]): 60 (25) %
- % Inhibition, acid concentration (S.E.M.) (gastric secretion; [12]): 60 (24) %
- % Inhibition, acid output (S.E.M.) (gastric secretion; [12]): 68 (20) %
- % Inhibition, acid concentration (S.E.M.) (gastric secretion; [13]): 67 (20) %
- % Inhibition, acid output (S.E.M.) (gastric secretion; [13]): 72 (20) %
- % Inhibition, acid concentration (S.E.M.) (gastric secretion; [14]): 80 (19) %
- % Inhibition, acid output (S.E.M.) (gastric secretion; [14]): 80 (20) %
- % Inhibition, acid concentration (S.E.M.) (gastric secretion; [15]): 100 (0) %
- % Inhibition, acid output (S.E.M.) (gastric secretion; [15]): 100 (0) %
- % Inhibition, acid concentration (S.E.M.) (gastric secretion; [16]): 72 (17) %
- % Inhibition, acid output (S.E.M.) (gastric secretion; [16]): 92 (5) %
- % Inhibition, acid concentration (S.E.M.) (gastric secretion; [17]): 80 (16) %
- % Inhibition, acid output (S.E.M.) (gastric secretion; [17]): 82 (18) %
- % Inhibition, acid concentration (S.E.M.) (gastric secretion; [18]): 80 (15) %
- % Inhibition, acid output (S.E.M.) (gastric secretion; [18]): 80 (20) %
- % Inhibition, acid concentration (S.E.M.) (gastric secretion; [19]): 67 (33) %
- % Inhibition, acid output (S.E.M.) (gastric secretion; [19]): 71 (29) %
- antisecretory effects (gastric secretion; I.G. dose 10 g/Kg [sic] b.w.): pronounced antisecretory effects
- duration of antisecretory effect (gastric secretion; I.G. dose 10 g/Kg [sic] b.w.): at least 3 hours
- duration of antisecretory effect compared with Compound B (gastric secretion; I.G. dose 10 g/Kg [sic] b.w.): significantly longer than that seen with Compound B
- inhibition of acid secretion (acid secretion; 50 to 100 μg/kg I.V.): at best, intermittent, slight to moderate inhibition of acid secretion of short duration
- inhibition of acid secretion (acid secretion; oral and intrapouch dose of 10 to 50 μg/kg): at best, intermittent, slight to moderate inhibition of acid secretion of short duration
- activity ([1]; 100 μg/kg p.o.): potential for significant activity
- dogs with 50% or better acid reduction for more than two hours ([1]; 100 μg/kg p.o., six dogs): Three of the six dogs
- acid reduction ([1]; 100 μg/kg p.o., in three of the six dogs, for more than two hours post dosage): ≥ 50%
- duration of 50% or better acid reduction ([1]; 100 μg/kg p.o., three of the six dogs): more than two hours
- activity compared with 500 μg/kg level ([1]; 250 μg/kg oral): almost as good as that found at the 500 μ/kg level
- antisecretory activity ([1]; 500 μg/kg oral): marked antisecretory activity of long duration
- duration of >60% inhibition of acid output ([1]; 500 μg/kg oral): > 9 h
- start of >60% inhibition of acid output after administration ([1]; 500 μg/kg oral): 45 min
- inhibition of acid output ([1]; 500 μg/kg oral, beginning 45 minutes after administration, longer than 9 hours, mean=0.38 mEq/15 minutes): > 60%
- reduction of the acid concentration from control values ([1]; 500 μg/kg oral, constant between 4 and 5 3/4 hours post drug, control mean=136 mg/L as printed): ≥ 50%
- maximum pH of gastric juice ([1]; 500 μg/kg oral, six hours post drug, from a control average of 1.0): 2.0
- blood lost after Compound A in combination with aspirin ([2]; Compound A 1.25 μg/kg + aspirin 100 mg/kg): 178 µL
- blood lost after Compound A in combination with aspirin ([2]; Compound A 2.5 μg/kg + aspirin 100 mg/kg): 56 µL
- prevention of aspirin-induced microbleeding [2, 20]: complete prevention
- blood lost after Compound A in combination with aspirin [2, 20]: 0 µL
- effect on aspirin-induced bleeding ([2]; Compound A 1.25, 2.5 or 10 μg/kg + aspirin 100 mg/kg): reduced or prevented bleeding in a dose-dependent manner

Compound: CCCCC(C)(C)[C@H](O)/C=C/C1[C@H](C)CC(=O)[C@@H]1C/C=C\CCCC(=O)O (stereo in doubt) [Compound B, (8R,11R,12S,15R,5Z,13E)-15-hydroxy-11,16,16-trimethyl-9-oxoprosta-5,13-dien-1-oic acid, reference compound]
- % Inhibition, acid concentration (S.E.M.) (gastric secretion; [3]): 62 (5) %
- % Inhibition, acid output (S.E.M.) (gastric secretion; [3]): 69 (3) %
- % Inhibition, acid concentration (S.E.M.) (gastric secretion; [4]): 67 (6) %
- % Inhibition, acid output (S.E.M.) (gastric secretion; [4]): 72 (2) %
- % Inhibition, acid concentration (S.E.M.) (gastric secretion; [5]): 58 (6) %
- % Inhibition, acid output (S.E.M.) (gastric secretion; [5]): 68 (6) %
- % Inhibition, acid concentration (S.E.M.) (gastric secretion; [6]): 59 (5) %
- % Inhibition, acid output (S.E.M.) (gastric secretion; [6]): 73 (2) %
- % Inhibition, acid concentration (S.E.M.) (gastric secretion; [7]): 43 (5) %
- % Inhibition, acid output (S.E.M.) (gastric secretion; [7]): 78 (7) %
- % Inhibition, acid concentration (S.E.M.) (gastric secretion; [8]): 45 (5) %
- % Inhibition, acid output (S.E.M.) (gastric secretion; [8]): 71 (3) %
- % Inhibition, acid concentration (S.E.M.) (gastric secretion; [9]): 44 (6) %
- % Inhibition, acid output (S.E.M.) (gastric secretion; [9]): 77 (7) %
- % Inhibition, acid concentration (S.E.M.) (gastric secretion; [10]): 25 (13) %
- % Inhibition, acid output (S.E.M.) (gastric secretion; [10]): 57 (17) %
